Test results as given in patent US9714247B2, “Multiple kinase pathway inhibitors” (Mannkind Corporation, priority 2012, dated 2017).
Like-named read-outs stand apart in the source and are kept apart here. Each block holds one molecule with its values, some of them ahead of it.

What was measured:
Ramos [1] = assay: CellTiter-Glo proliferation/viability assay; format: cell-based, human
DoHH2 [2] = assay: CellTiter-Glo proliferation/viability assay; format: cell-based, human
Ramos [3] = details: cited from earlier work
SuDHL6 = assay: Proliferation/viability assay; format: cell-based; details: Table 10, B Lymphoma, read-out: Effect on Tumor Cell Growth EC50, SuDHL6
PC3 [4] = assay: Proliferation/viability assay; format: cell-based; details: Table 10, Prostate Ca, read-out: Effect on Tumor Cell Growth EC50, PC3
[5] = tested on: PLCγ2 phosphorylation in Ramos cells; assay: PLCγ2 phosphorylation by Western blotting; format: cell-based, human; details: anti-IgM/H2O2 stimulation, Tyr1217
Protocol: Ramos cells were cultured in RPMI 1640 media with 10% FBS and were starved overnight (18 h) in 1% FBS containing media and on the next day pretreated with inhibitor for 2 h before stimulation. Cells were stimulated to induce BTK network dependent signal transduction pathways using mouse anti-human IgM (final concentration 10 ug/ml; Invitrogen) antibodies and 3.3 mM H2O2 mixture for 2 minutes followed by F(Ab) fragment that cross-linked the anti-IgM antibody (final concentration 10 ug/ml), and 3.3 mM H2O2 for 8 minutes. Cell lysates were prepared in lysis buffer containing protease and phosphatase inhibitors, quantified using the BCA protein assay kit (Pierce) and used for Western blotting. Antibodies specifically targeted to the molecules of interest, PLCγ2 phosphorylated at Tyr1217 and total PLCγ2, (Cell Signaling Technology) were used in a standard Western blotting procedure.
Phosphorylation of PLCγ2 at Tyr1217 along with Tyr753, Tyr759 and Tyr1197 is correlated with increased PLCγ2 activity. The readout for BTK network signaling was inhibition of phosphorylation of PLCγ2 induced by the anti-IgM treatment.

Src [6] = target: T1, Src (Homo sapiens (Human), UniProt P12931); assay: biochemical
T1 sequence (P12931 whole entry, looked up): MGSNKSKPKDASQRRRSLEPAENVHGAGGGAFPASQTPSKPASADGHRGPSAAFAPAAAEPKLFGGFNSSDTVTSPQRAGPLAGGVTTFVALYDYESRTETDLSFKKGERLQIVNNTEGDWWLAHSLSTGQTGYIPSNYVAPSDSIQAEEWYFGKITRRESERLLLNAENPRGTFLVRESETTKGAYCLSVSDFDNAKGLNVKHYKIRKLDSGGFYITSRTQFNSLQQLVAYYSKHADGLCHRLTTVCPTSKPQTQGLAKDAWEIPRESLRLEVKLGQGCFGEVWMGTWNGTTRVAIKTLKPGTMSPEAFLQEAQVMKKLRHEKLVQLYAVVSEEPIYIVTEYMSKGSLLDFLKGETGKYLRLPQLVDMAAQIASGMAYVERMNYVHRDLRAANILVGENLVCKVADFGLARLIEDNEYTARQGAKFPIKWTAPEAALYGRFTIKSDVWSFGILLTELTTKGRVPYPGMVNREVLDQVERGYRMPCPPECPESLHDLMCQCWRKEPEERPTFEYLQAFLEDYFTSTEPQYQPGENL

[7] = tested on: PLCγ2 phosphorylation in Ramos cells; assay: PLCγ2 phosphorylation by flow cytometry; format: cell-based, human; details: Homo sapiens, flow cytometry; for inhibition at 0.3 µM: anti-phospho PLCγ2 (Tyr759), read-out: pPLCγ % inhibition
Method in brief: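 Ramos cells starved 18 h in 1% FBS, pretreated with inhibitor 2 h, then stimulated with anti-IgM (10 ug/ml final) plus 3.3 mM H2O2 for 2 min, then cross-linking F(ab) (10 ug/ml) plus H2O2 for 8 min. Fixed, permeabilized cells stained with PE anti-phospho-PLCγ2 (Tyr1217 or Tyr759), dead cells gated out; ED50 from geometric mean fluorescence over four inhibitor concentrations.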

[8] = tested on: phosphorylation of SFKs in Ramos cells; assay: SFK phosphorylation (Tyr 416) by Western blotting; format: cell-based, human; details: pretreated 2 hours
Protocol: Ramos cell lysates from stimulated and unstimulated cells were analyzed for the levels of phosphorylated SRC family members. As described in Example 82 (above), cells were pretreated for 2 hours with an amino naphthyridinones and then stimulated with anti-IgM antibody and H2O2, protein lysates were prepared, quantified and used for Western blotting. A commercially available antibody that detects Src phosphorylated at Tyr 416 (Cell Signalling) and may cross-react with other Src family members such as Lyn, Fyn, Lck, Yes and Hck when phosphorylated at equivalent sites was used for Western blot analysis. The molecular weights of SFK family members are quite similar (in the 55-60 kDa range) and different family members cannot be resolved by the conditions used for the Western blot. […] The procedure can be similarly adapted for flow cytometric analysis as with the PLC-γ2 assay in Example 82. Ramos cells were incubated with Compound 1 for 2 hrs in RPMI media with 5% FBS prior to stimulation stimulated with H2O2/anti-IgM/F(Ab) for 10 minutes. Cells were evaluated by FACS analysis using anti-pSRC antibody and FITC-conjugated goat anti-rabbit secondary antibody following overnight storage at 4° C. in BD perm/wash buffer.

Lyn [9] = target: T2, Lyn (Homo sapiens (Human), UniProt P07948); assay: biochemical
T2 sequence (P07948 whole entry): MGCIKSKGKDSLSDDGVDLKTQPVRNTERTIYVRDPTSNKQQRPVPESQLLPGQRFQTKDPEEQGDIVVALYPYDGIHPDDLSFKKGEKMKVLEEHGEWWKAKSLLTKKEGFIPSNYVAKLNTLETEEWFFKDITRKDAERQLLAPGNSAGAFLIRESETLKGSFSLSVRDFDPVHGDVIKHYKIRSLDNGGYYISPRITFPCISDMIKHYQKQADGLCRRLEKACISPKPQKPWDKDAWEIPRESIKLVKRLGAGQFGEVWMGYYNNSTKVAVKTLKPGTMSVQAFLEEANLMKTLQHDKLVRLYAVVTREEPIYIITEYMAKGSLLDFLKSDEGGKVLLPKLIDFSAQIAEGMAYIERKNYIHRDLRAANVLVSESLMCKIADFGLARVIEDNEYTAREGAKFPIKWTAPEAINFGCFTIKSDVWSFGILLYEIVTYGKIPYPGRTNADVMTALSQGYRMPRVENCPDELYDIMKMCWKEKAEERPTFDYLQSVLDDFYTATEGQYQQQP

DoHH2 cells = details: treated 24 hours
Lyn [10] = target: T2, Lyn; details: read-out: Lyn IC50
BTK = BTK (Homo sapiens (Human), UniProt Q06187)
Sequence of BTK (Q06187 whole entry): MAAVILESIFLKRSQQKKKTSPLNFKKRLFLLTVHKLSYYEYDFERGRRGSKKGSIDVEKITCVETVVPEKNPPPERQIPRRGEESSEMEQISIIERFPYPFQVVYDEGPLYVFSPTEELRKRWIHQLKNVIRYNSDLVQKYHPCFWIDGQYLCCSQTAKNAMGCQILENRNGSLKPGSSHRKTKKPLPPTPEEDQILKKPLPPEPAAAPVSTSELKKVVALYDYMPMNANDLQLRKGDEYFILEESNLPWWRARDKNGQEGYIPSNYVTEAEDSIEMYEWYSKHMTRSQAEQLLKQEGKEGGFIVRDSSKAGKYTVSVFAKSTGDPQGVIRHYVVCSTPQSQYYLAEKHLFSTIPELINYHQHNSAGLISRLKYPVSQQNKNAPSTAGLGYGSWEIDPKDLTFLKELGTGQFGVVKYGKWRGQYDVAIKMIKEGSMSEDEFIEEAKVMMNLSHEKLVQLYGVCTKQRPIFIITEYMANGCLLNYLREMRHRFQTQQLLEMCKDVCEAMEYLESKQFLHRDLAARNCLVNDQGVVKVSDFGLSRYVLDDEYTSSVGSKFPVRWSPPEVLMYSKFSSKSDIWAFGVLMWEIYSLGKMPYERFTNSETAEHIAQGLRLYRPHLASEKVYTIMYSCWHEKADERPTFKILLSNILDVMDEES

Src [11] = target: T1, Src; details: read-out: Src IC50
RBL-2H3 cells = assay: Degranulation (β-hexosaminidase release) colorimetric assay; format: cell-based; details: Rattus norvegicus, RBL-2H3, IgE / DNP-BSA
Excerpt: Crosslinking of IgE receptors leads to induction of intracellular signal transduction pathways and degranulation of mast cells and basophils leading to the release of histamine, serotonin and cytokines that constitutes an allergic reaction. […] One of the factors secreted on induction of degranulation is β-hexosaminidase. A colorimetric assay using 4-nitrophenyl N-acetyl-3-D-glucosaminide (Sigma-Aldrich) as a substrate was used to estimate the amount of enzyme secreted upon degranulation. In brief, RBL-2H3 (ATCC # CRL 2256) cells were plated overnight in the presence of IgE (monoclonal anti-dinitrophenyl antibody from Sigma-Aldrich). The next day, cells were treated with compounds in cell culture media, washed and treated with DNP-BSA for 1 hour (Sigma-Aldrich) in Tyrodes's buffer to induce degranulation. The level of 3-hexosaminidase was analyzed in cell-free supernates and cell lysates and the amount of β-hexosaminidase released was calculated. EC50 values were generated using varying concentrations of inhibitors. […] Thus amino naphthyridinones can be used to inhibit immunologic functions such as degranulation.

[12] = tested on: phosphorylation of SFKs in Ramos cells; assay: SFK phosphorylation (Tyr 416) by flow cytometry; format: cell-based, human; details: Homo sapiens, 0.3 uM, flow cytometry, SFK phosphorylated at Tyr 416, read-out: pSRC % inhibition
Method in brief: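 Ramos cells pretreated with compound 2 hrs in RPMI with 5% FBS, then stimulated 10 minutes with H2O2/anti-IgM. Phospho-Tyr 416 SFK detected by flow cytometry with an antibody that may cross-react across Src family members, plus fluorescent secondary antibody.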

RPMI8226 = assay: Proliferation/viability assay; format: cell-based; details: Homo sapiens, RPMI-8226; Table 10; Myeloma; read-out: Effect on Tumor Cell Growth EC50, RPMI 8226
DoHH2 [13] = details: cited from earlier work
PC3 [14] = assay: Apoptosis by flow cytometry (Annexin V / 7AAD); format: cell-based; details: Table 5; positive control, concentration not given
DoHH2 [15] = assay: Apoptosis by flow cytometry (Annexin V / 7AAD); format: cell-based, human; details: Table 5; positive control, concentration not given
Excerpt: Activation of Tec family kinases including BTK, and/or Src kinase family members, regulates cell survival and cell death in normal B cells, lymphomas, and solid tumors. Apoptosis is a programmed cell death characterized by specific changes in cell morphology. […] Staurosporine was used as a positive control for apoptosis. […] Table 6 illustrates that several amino naphthyridinones induce significant apoptosis in DoHH2 cells.

Ramos [16] = assay: Apoptosis by flow cytometry (Annexin V / 7AAD); format: cell-based, human; details: Table 5; positive control, concentration not given
[17] = Homo sapiens, Ramos, 48 hrs, read-out: Ramos EC50
[18] = Homo sapiens, DOHH-2, 48 hrs, read-out: DoHH2 EC50
[19] = Homo sapiens, Ramos, Table 10, B Lymphoma, read-out: Effect on Tumor Cell Growth EC50, Ramos
[20] = Homo sapiens, DOHH-2, Table 10, B Lymphoma, read-out: Effect on Tumor Cell Growth EC50, DOHH2

- EC50 (Ramos [1]; Table 10, B Lymphoma, read-out: Effect on Tumor Cell Growth EC50, Ramos): > 10 µM
- EC50 (SuDHL6): 2.5 µM
- EC50 (PC3 [4]): > 10 µM
Compound: CN1CCN(CCOc2cc(OC3CCOCC3)c3c(Nc4c(Cl)ccc5c4OCO5)ncnc3c2)CC1 [AZN0530]
- EC50 (DoHH2 [2]; Table 10, B Lymphoma, read-out: Effect on Tumor Cell Growth EC50, DOHH2): 2.4 µM
- Resistance of Ramos to known kinase inhibitors (Ramos [3]): resistant

- EC50 (Ramos [1]; [17]): > 10 µM
- IC50 (Src [6]): 0.1 to 1 µM
- EC50 ([7]; anti-phospho PLCγ2 (Tyr1217), four concentrations, read-out: Inhibition of phosphorylation of PLC-γ2 EC50): 0.33 µM
- IC50 (Lyn [9]): 0.1 to 1 µM
- IC50 (Lyn [10]): 0.1 to 1 µM
- IC50 (BTK): 0.1 to 1 µM
- IC50 (BTK; read-out: BTK IC50): 0.1 to 1 µM
Compound: CCN(CC)CCOc1ccc(Nc2cc3c(cn2)cc(-c2ccccc2)c(=O)n3C2CCOCC2)nc1 [Compound 70, 7-(5-(2-(diethylamino)ethoxy)pyridin-2-ylamino)-3-phenyl-1-(tetrahydro-2H-pyran-4-yl)-1,6-naphthyridin-2(1H)-one]
- Inhibition of PLCγ2 phosphorylation (Western blot) [5]: observed this inhibition
- EC50 (DoHH2 [2]; [18]): < 1 µM
- EC50 (DoHH2 [2]; Homo sapiens, DOHH-2, Table 4, DoHH2 cells, read-out: EC50 (Proliferation)): < 1 µM
- Inhibition of phosphorylation of SFKs (Western blot) [8]: dose-dependent decrease of phosphorylation of SFKs
- Effect on Cell Cycle (DoHH2 cells): G1 Arrest

- EC50 (Ramos [1]; [17]): 1 to 10 µM
- IC50 (Src [11]): < 0.1 µM
- EC50 (RBL-2H3 cells): 3.11 µM
- IC50 (Lyn [10]): < 0.1 µM
- IC50 (BTK; read-out: BTK IC50): < 0.1 µM
Compound: CN1CCN(CCn2c(=O)c(-c3c(F)cccc3F)cc3cnc(Nc4ccc(F)cn4)cc32)CC1 [Compound 134, 3-(2,6-difluorophenyl)-7-((5-fluoropyridin-2-yl)amino)-1-(2-(4-methylpiperazin-1-yl)ethyl)-1,6-naphthyridin-2(1H)-one]
- EC50 (DoHH2 [2]; [18]): < 1 µM
- inhibition at 0.3 µM [7]: 80%
- inhibition at 0.3 µM [12]: 44%

Compound: CC(C)n1c(=O)c(-c2c(F)cccc2F)cc2cnc(Nc3ccc(N(C)C4CCN(C)CC4)cn3)cc21 [Compound 137, 3-(2,6-difluorophenyl)-1-isopropyl-7-((5-(methyl(1-methylpiperidin-4-yl)amino)pyridin-2-yl)amino)-1,6-naphthyridin-2(1H)-one]
- EC50 (Ramos [1]; Homo sapiens, Ramos, 48 h, read-out: Ramos EC50): 1 to 10 µM
- IC50 (Src [11]): < 0.1 µM
- EC50 (DoHH2 [2]; [18]): < 1 µM
- EC50 (RBL-2H3 cells): 1.14 µM
- inhibition at 0.3 µM [7]: 98%
- IC50 (Lyn [10]): < 0.1 µM
- IC50 (BTK; read-out: BTK IC50): < 0.1 µM
- inhibition at 0.3 µM [12]: 81%

- EC50 (Ramos [1]; [19]): 7.3 µM
- EC50 (SuDHL6; Homo sapiens, SU-DHL-6): 5.7 µM
- EC50 (PC3 [4]; Homo sapiens, PC-3): > 10 µM
Compound: Cc1ccc(NC(=O)c2ccc(CN3CC[C@H](N(C)C)C3)c(C(F)(F)F)c2)cc1Nc1nccc(-c2cncnc2)n1 [Inno-406]
- EC50 (DoHH2 [2]; [20]): 6.9 µM
- Resistance of Ramos to known kinase inhibitors (Ramos [3]): resistant

- EC50 (Ramos [1]; [19]): > 10 µM
- EC50 (RPMI8226): > 10 µM
- EC50 (SuDHL6; Homo sapiens, SU-DHL-6): 5.5 µM
- EC50 (PC3 [4]; Homo sapiens, PC-3): > 10 µM
Compound: C=CC(=O)N1CCC[C@@H](n2nc(-c3ccc(Oc4ccccc4)cc3)c3c(N)ncnc32)C1 [PCI-32765, ibrutinib]
- EC50 (DoHH2 [2]; [20]): 2.8 µM
- Response of DoHH2 to known drugs (DoHH2 [13]): responds
- Resistance of Ramos to known kinase inhibitors (Ramos [3]): resistant

Compound: Cc1nc(Nc2ncc(C(=O)Nc3c(C)cccc3Cl)s2)cc(N2CCN(CCO)CC2)n1 [dasatinib]
- Response of DoHH2 to known drugs (DoHH2 [13]): responds
- Resistance of Ramos to known kinase inhibitors (Ramos [3]): resistant

Compound: CN[C@@H]1C[C@H]2O[C@@](C)([C@@H]1OC)n1c3ccccc3c3c4c(c5c6ccccc6n2c5c31)C(=O)NC4 [staurosporine, Staurosporine, reference compound]
- Percent Apoptosis PC3 (PC3 [14]): 47.16%
- Percent Apoptosis DOHH2 (DoHH2 [15]): 95.86%
- Percent Apoptosis Ramos (Ramos [16]): 73.74%
